Measurements from PubChem BioAssay AID1963439 (Molecular Pharmacology Branch, DTP, NCI, 2024).
Values joined by “and” are separate entries in the source; they are usually repeats but may differ in a detail not shown here. Identical values can stand only once.

Test system: NCI-H196 complex spheroids with HUVEC/MSC, growth % T/C
Experiment: Anticancer human tumor NCI-H196 cell line growth inhibition [Asc];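 note: spheroids exposed to compound for 7 days before measurement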;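 for viability, T/C: 100% = DMSO vehicle control wells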
Conditions: for viability, T/C: stronger effect = lower value; active = viability on the fitted dose curve at most 10% of control; inactive = the rest
Outline: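 Complex solid-tumor spheroids incorporating human endothelial and mesenchymal stem cells received single agents or combinations over half-log dilution ranges anchored to clinical Cmax.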

[1] = curve of first compound, second compound 0.01 µM
[2] = curve of first compound, second compound 0.0316 µM
[3] = curve of first compound, second compound 0.1 µM
[4] = curve of first compound, second compound 0.316 µM
[5] = curve of first compound, second compound 1 µM
[6] = second compound 0.1 µM, first compound 0.0316 µM
[7] = second compound 0.1 µM, first compound 0.1 µM
[8] = second compound 0.316 µM, first compound 0.0316 µM
[9] = second compound 0.316 µM, first compound 0.1 µM
[10] = second compound 1 µM, first compound 0.0316 µM
[11] = second compound 1 µM, first compound 0.1 µM
[12] = curve of first compound, second compound 3.16 µM
[13] = curve of first compound, second compound 10 µM
[14] = second compound 0.1 µM, first compound 0.316 µM
[15] = second compound 0.1 µM, first compound 1 µM
[16] = second compound 0.1 µM, first compound 3.16 µM
[17] = second compound 0.1 µM, first compound 10 µM
[18] = second compound 0.316 µM, first compound 0.316 µM
[19] = second compound 0.316 µM, first compound 1 µM
[20] = second compound 0.316 µM, first compound 3.16 µM
[21] = second compound 0.316 µM, first compound 10 µM
[22] = second compound 1 µM, first compound 0.316 µM
[23] = second compound 1 µM, first compound 1 µM
[24] = second compound 1 µM, first compound 3.16 µM
[25] = second compound 1 µM, first compound 10 µM
[26] = second compound 3.16 µM, first compound 0.0316 µM
[27] = second compound 3.16 µM, first compound 0.1 µM
[28] = second compound 3.16 µM, first compound 0.316 µM
[29] = second compound 3.16 µM, first compound 1 µM
[30] = second compound 3.16 µM, first compound 3.16 µM
[31] = second compound 3.16 µM, first compound 10 µM
[32] = second compound 10 µM, first compound 0.0316 µM
[33] = second compound 10 µM, first compound 0.1 µM
[34] = second compound 10 µM, first compound 0.316 µM
[35] = second compound 10 µM, first compound 1 µM
[36] = second compound 10 µM, first compound 3.16 µM
[37] = second compound 10 µM, first compound 10 µM

Cn1ncnc1[C@H]1c2n[nH]c(=O)c3cc(F)cc(c23)N[C@@H]1c1ccc(F)cc1 + CNC(C)C(=O)NC1CN(S(=O)(=O)c2cccc(S(=O)(=O)N3CCC4CCC(C(=O)NC(c5ccccc5)c5ccccc5)N4C(=O)C(NC(=O)C(C)NC)C3)c2)CCC2CCC(C(=O)NC(c3ccccc3)c3ccccc3)N2C1=O
active: viability, T/C (second compound 0.01 µM, first compound 0.000316 µM) 5.99% | viability, T/C (second compound 0.01 µM, first compound 0.001 µM) 6.41% | viability, T/C (second compound 0.01 µM, first compound 0.00316 µM) 5.39% | viability, T/C (second compound 0.01 µM, first compound 0.01 µM) 5.55% | viability, T/C (second compound 0.01 µM, first compound 0.0316 µM) 9.54% | viability, T/C (second compound 0.01 µM, first compound 0.1 µM) 6.44% | viability, T/C (second compound 0.0316 µM, first compound 0.000316 µM) 7.02% | viability, T/C (second compound 0.0316 µM, first compound 0.001 µM) 6.75% | viability, T/C (second compound 0.0316 µM, first compound 0.00316 µM) 5.6% | viability, T/C (second compound 0.0316 µM, first compound 0.01 µM) 4.53% | viability, T/C (second compound 0.0316 µM, first compound 0.0316 µM) 3.1% | viability, T/C (second compound 0.0316 µM, first compound 0.1 µM) 4.55% | viability, T/C (second compound 0.1 µM, first compound 0.000316 µM) 4.37% | viability, T/C (second compound 0.1 µM, first compound 0.001 µM) 3.32% | viability, T/C (second compound 0.1 µM, first compound 0.00316 µM) 4.82% | viability, T/C (second compound 0.1 µM, first compound 0.01 µM) 3.9% | viability, T/C [6] 2.51% | viability, T/C [7] 3.65% | viability, T/C (second compound 0.316 µM, first compound 0.000316 µM) 3.1% | viability, T/C (second compound 0.316 µM, first compound 0.001 µM) 3.37% | viability, T/C (second compound 0.316 µM, first compound 0.00316 µM) 3.42% | viability, T/C (second compound 0.316 µM, first compound 0.01 µM) 3.57% | viability, T/C [8] 2.58% | viability, T/C [9] 4.61% | viability, T/C (second compound 1 µM, first compound 0.000316 µM) 2.27% | viability, T/C (second compound 1 µM, first compound 0.001 µM) 4.58% | viability, T/C (second compound 1 µM, first compound 0.00316 µM) 3.37% | viability, T/C (second compound 1 µM, first compound 0.01 µM) 3% | viability, T/C [10] 3.76% | viability, T/C [11] 5.53%
< 0.000316 µM: IC50 [1] | IC50 [2] | IC50 [3] | IC50 [4] | IC50 [5]

O=C(c1ccc(F)c(F)c1Nc1ccc(I)cc1F)N1CC(O)([C@@H]2CCCCN2)C1
> 1 µM: IC50 (curve of compound)
inactive: viability, T/C (compound 0.00316 µM) 94.1% and 97.7% and 117% | viability, T/C (compound 0.01 µM) 116% and 99.4% and 109% | viability, T/C (compound 0.0316 µM) 98.1% and 97.8% and 122% | viability, T/C (compound 0.1 µM) 116% and 111% and 136% | viability, T/C (compound 0.316 µM) 132% and 119% and 145% | viability, T/C (compound 1 µM) 126% and 119% and 145%

Cc1nc(N2CCC3(CC2)COC(C)C3N)c(CO)nc1Sc1ccnc(N)c1Cl (configuration not stated) + CNC(C)C(=O)NC1CN(S(=O)(=O)c2cccc(S(=O)(=O)N3CCC4CCC(C(=O)NC(c5ccccc5)c5ccccc5)N4C(=O)C(NC(=O)C(C)NC)C3)c2)CCC2CCC(C(=O)NC(c3ccccc3)c3ccccc3)N2C1=O
< 0.00949 µM: IC50 [1] | IC50 [2] | IC50 [3] | IC50 [4] | IC50 [5]
active: viability, T/C (second compound 0.01 µM, first compound 0.03 µM) 7.94% | viability, T/C (second compound 0.01 µM, first compound 0.0949 µM) 5.15% | viability, T/C (second compound 0.01 µM, first compound 0.3 µM) 6.8% | viability, T/C (second compound 0.01 µM, first compound 0.949 µM) 6.64% | viability, T/C (second compound 0.01 µM, first compound 3 µM) 6.64% | viability, T/C (second compound 0.0316 µM, first compound 0.00949 µM) 4.39% | viability, T/C (second compound 0.0316 µM, first compound 0.03 µM) 3.45% | viability, T/C (second compound 0.0316 µM, first compound 0.0949 µM) 4.36% | viability, T/C (second compound 0.0316 µM, first compound 0.3 µM) 3.89% | viability, T/C (second compound 0.0316 µM, first compound 0.949 µM) 4.66% | viability, T/C (second compound 0.0316 µM, first compound 3 µM) 4.54% | viability, T/C (second compound 0.1 µM, first compound 0.00949 µM) 3.47% | viability, T/C (second compound 0.1 µM, first compound 0.03 µM) 3.41% | viability, T/C (second compound 0.1 µM, first compound 0.0949 µM) 4.81% | viability, T/C (second compound 0.1 µM, first compound 0.3 µM) 3.67% | viability, T/C (second compound 0.1 µM, first compound 0.949 µM) 3.69% | viability, T/C (second compound 0.1 µM, first compound 3 µM) 3.62% | viability, T/C (second compound 0.316 µM, first compound 0.00949 µM) 3.86% | viability, T/C (second compound 0.316 µM, first compound 0.03 µM) 6.04% | viability, T/C (second compound 0.316 µM, first compound 0.0949 µM) 2.84% | viability, T/C (second compound 0.316 µM, first compound 0.3 µM) 2.59% | viability, T/C (second compound 0.316 µM, first compound 0.949 µM) 3.03% | viability, T/C (second compound 0.316 µM, first compound 3 µM) 3.1% | viability, T/C (second compound 1 µM, first compound 0.00949 µM) 4.12% | viability, T/C (second compound 1 µM, first compound 0.03 µM) 2.58% | viability, T/C (second compound 1 µM, first compound 0.0949 µM) 2.94% | viability, T/C (second compound 1 µM, first compound 0.3 µM) 2.39% | viability, T/C (second compound 1 µM, first compound 0.949 µM) 2.12% | viability, T/C (second compound 1 µM, first compound 3 µM) 1.83%
inactive: viability, T/C (second compound 0.01 µM, first compound 0.00949 µM) 11%

C=CC(=O)N1CCN(c2nc(=O)n(-c3c(C)ccnc3C(C)C)c3nc(-c4c(O)cccc4F)c(F)cc23)C(C)C1 (configuration not stated) + Cc1c(S(C)(=O)=O)c(-c2cc(F)cc(N3CCN(c4ccc(NS(=O)(=O)c5ccc(NC(CCN6CCC(C(=O)OCCCP(=O)(O)O)CC6)CSc6ccccc6)c(S(=O)(=O)C(F)(F)F)c5)cc4)CC3)c2)c(-c2ccc(Cl)cc2)n1C(C)C
inactive: viability, T/C [6] 103% | viability, T/C [7] 93.2% | viability, T/C [14] 96.1% | viability, T/C [15] 102% | viability, T/C [16] 96% | viability, T/C [17] 97.9% | viability, T/C [8] 92.1% | viability, T/C [9] 97.4% | viability, T/C [18] 96% | viability, T/C [19] 109% | viability, T/C [20] 104% | viability, T/C [21] 96.5% | viability, T/C [10] 95.5% | viability, T/C [11] 92.4% | viability, T/C [22] 93.9% | viability, T/C [23] 88% | viability, T/C [24] 110% | viability, T/C [25] 85.7% | viability, T/C [26] 87.9% | viability, T/C [27] 87.1% | viability, T/C [28] 83.8% | viability, T/C [29] 87.8% | viability, T/C [30] 84.9% | viability, T/C [31] 80% | viability, T/C [32] 73.9% | viability, T/C [33] 79.6% | viability, T/C [34] 79.8% | viability, T/C [35] 75.3% | viability, T/C [36] 78.1% | viability, T/C [37] 66.8%
> 10 µM: IC50 [3] | IC50 [4] | IC50 [5] | IC50 [12] | IC50 [13]

C#Cc1c(F)ccc2cc(O)cc(-c3ncc4c(N5CC6CCC(C5)N6)nc(OCC56CCCN5CC(F)C6)nc4c3F)c12 (configuration not stated) + Cc1c(S(C)(=O)=O)c(-c2cc(F)cc(N3CCN(c4ccc(NS(=O)(=O)c5ccc(NC(CCN6CCC(C(=O)OCCCP(=O)(O)O)CC6)CSc6ccccc6)c(S(=O)(=O)C(F)(F)F)c5)cc4)CC3)c2)c(-c2ccc(Cl)cc2)n1C(C)C
inactive: viability, T/C [6] 92.8% | viability, T/C [7] 93% | viability, T/C [14] 98.2% | viability, T/C [15] 98.1% | viability, T/C [16] 94.2% | viability, T/C [17] 93.5% | viability, T/C [8] 98.3% | viability, T/C [9] 93.3% | viability, T/C [18] 88.8% | viability, T/C [19] 97.8% | viability, T/C [20] 94.8% | viability, T/C [21] 88.1% | viability, T/C [10] 88.9% | viability, T/C [11] 87.7% | viability, T/C [22] 90.8% | viability, T/C [23] 89.2% | viability, T/C [24] 93.7% | viability, T/C [25] 83.7% | viability, T/C [26] 84.4% | viability, T/C [27] 86.7% | viability, T/C [28] 81.3% | viability, T/C [29] 75.5% | viability, T/C [30] 78.5% | viability, T/C [31] 70.1% | viability, T/C [32] 71.8% | viability, T/C [33] 77.8% | viability, T/C [34] 82.7% | viability, T/C [35] 80.4% | viability, T/C [36] 71.2% | viability, T/C [37] 58%
> 10 µM: IC50 [3] | IC50 [4] | IC50 [5] | IC50 [12] | IC50 [13]
